Source: US7595401B2, “Therapeutic compounds and their use in cancer” (Myriad Pharmaceuticals, Inc., priority 2006, dated 2009)

Tested on: purified human Hsp90
Assay: Binding Assay: fluorescence polarization with BODIPY-labeled geldanamycin
Details: 5 μM compound, BODIPY-GM 10 nM, Hsp90 30 nM
How it was run: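 Fluorescence polarization competition with BODIPY-geldanamycin (10 nM final) and human Hsp90 (30 nM final) in HEPES-KOH pH 7.3 buffer with molybdate, NP-40, DTT; 2% DMSO, overnight at room temperature. Read 485/530 nm; percent inhibition from mP normalized to DMSO controls, fluorescent-compound points excluded.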

| SMILES | % Inhibition at 5 μM Compound Concentration [%] |
| --- | --- |
| CC(C)[C@@H]1C[C@H](CCn2cnc(N)c3nc(Sc4cc5c(cc4Br)OCO5)nc2-3)CCN1C(=O)OC(C)(C)C (relative stereo) [Example 430, tert-Butyl cis-4-(2-{6-amino-8-[(6-bromo-1,3-benzodioxol-5-yl)thio]-3H-purin-3-yl}ethyl)-2-isopropylpiperidine-1-carboxylate] | 15 |
| CC(=O)N1CCCC(CCn2cnc(N)c3nc(Sc4cc5c(cc4Br)OCO5)nc2-3)C1 (stereo not shown) [Example 401, 3-[2-(1-Acetylpiperidin-3-yl)ethyl]-8-[(6-bromo-1,3-benzodioxol-5-yl)thio]-3H-purin-6-amine] | 2 |
| Nc1ncnc2c1nc(Sc1cc3c(cc1Br)OCO3)n2CCC1CCCCC1 [Example 173, 8-(6-Bromo-benzo[1,3]dioxol-5-ylsulfanyl)-9-(2-cyclohexyl-ethyl)-9H-purin-6-ylamine] | 44 |
| CC(C)NC(=O)N1CCCC(CCn2cnc(N)c3nc(Sc4cc5c(cc4Br)OCO5)nc2-3)C1 (stereo not shown) [Example 441, 3-(2-{6-Amino-8-[(6-bromo-1,3-benzodioxol-5-yl)thio]-3H-purin-3-yl}ethyl)-N-isopropylpiperidine-1-carboxamide] | 45 |

More lines, now with the values ahead:

| % Inhibition at 5 μM Compound Concentration [%] | SMILES |
| --- | --- |
| 0 | COc1ccc(OC)c(Sc2nc3c(N)ncn(CCc4ccc(NC(=O)OC(C)(C)C)cc4)c-3n2)c1 [Example 215, (4-{2-[6-amino-8-(2,5-dimethoxy-phenylsulfanyl)-purin-3-yl]-ethyl}-phenyl)-carbamic acid tert-butyl ester] |
| 0.0 | COc1ccc(F)cc1Sc1nc2c(N)ncn(CCc3ccccc3Cl)c-2n1 [Example 317, 3-[2-(2-Chlorophenyl)ethyl]-8-[(5-fluoro-2-methoxyphenyl)thio]-3H-purin-6-amine] |
| 2 | COc1ccc(OC)c(Sc2nc3c(N)ncnc3n2CCc2cccc(Cl)c2Cl)c1 [Example 73, 9-[2-(2,3-Dichloro-phenyl)-ethyl]-8-(2,5-dimethoxy-phenylsulfanyl)-9H-purin-6-ylamine] |
| 10 | COc1cc(CCn2cnc(N)c3nc(Sc4cc5c(cc4Br)OCO5)nc2-3)cc(OC)c1 [Example 196, 8-(6-Bromo-benzo[1,3]dioxol-5-ylsulfanyl)-3-[2-(3,5-dimethoxy-phenyl)-ethyl]-3H-purin-6-ylamine] |
| 100 | COc1ccc(OC)c(Sc2nc3c(N)ncnc3n2CCc2ccccc2C(F)(F)F)c1 [Example 183, 8-(2,5-Dimethoxy-phenylsulfanyl)-9-[2-(2-trifluoromethyl-phenyl)-ethyl]-9H-purin-6-ylamine] |
| 11.00 | CC(=O)Nc1ccc(Sc2nc3c(N)ncn(CCC4CCN(C=O)CC4)c-3n2)c(Cl)c1 [Example 549, N-[4-({6-Amino-3-[2-(1-formylpiperidin-4-yl)ethyl]-3 H-purin-8-yl}thio)-3-chlorophenyl]acetamide] |
| 16 | COc1ccc(OC)c(Sc2nc3c(N)ncn(CCn4cnc5ccccc5c4=O)c-3n2)c1 [Example 272, 3-(2-{6-Amino-8-[(2,5-dimethoxyphenyl)thio]-3H-purin-3-yl}ethyl)quinazolin-4(3 H)-one] |
| 10 | COc1ccc(OC)c(Sc2nc3c(N)ncn(CCc4cccc(C(F)(F)F)c4)c-3n2)c1 [Example 80, 8-(2,5-dimethoxy-phenylsulfanyl)-3-[2-(3-trifluoromethyl-phenyl)-ethyl]-3H-purin-6-ylamine] |
| 10 | COc1ccc(OC)c(Sc2nc3c(N)ncn(CCC(NC(=O)OC(C)(C)C)C4CCSCC4)c-3n2)c1 (stereo not shown) [Example 669, tert-Butyl[3-{6-amino-8-[(2,5-dimethoxyphenyl)thio]-3H-purin-3-yl}-1-(tetrahydro-2H-thiopyran-4-yl)propyl]carbamate] |
| 22 | CC(C)(C)OC(=O)N1CCC(CCn2cnc(N)c3nc(Sc4cc5c(cc4Br)OCO5)nc2-3)CC1 [Example 344, tert-Butyl 4-(2-{6-amino-8-[(6-bromo-1,3-benzodioxol-5-yl)thio]-3H-purin-3-yl}ethyl)piperidine-1-carboxylate] |

Same assay, conditions: BODIPY-GM 10 nM, Hsp90 30 nM

| SMILES | IC50 [nM] |
| --- | --- |
| C[C@H](C(=O)N1CCC(CCn2c(Sc3cc4c(cc3Br)OCO4)nc3c(N)ncnc32)CC1)N(C)C(=O)OC(C)(C)C [Example 717, tert-Butyl{(1R)-2-[4-(2-{6-amino-8-[(6-bromo-1,3-benzodioxol-5-yl)thio]-9H-purin-9-yl}ethyl)piperidin-1-yl]-1-methyl-2-oxoethyl}methylcarbamate] | 200 |
| Nc1ncnc2c1nc(Sc1cc3c(cc1Br)OCO3)n2CCc1ccsc1 [Example 201, 8-(6-Bromo-benzo[1,3]dioxol-5-ylsulfanyl)-9-(2-thiophen-3-yl-ethyl)-9H-purin-6-ylamine] | 72 |
| Nc1ncnc2c1nc(Sc1cc3c(cc1Br)OCO3)n2CCC1CC2CCC(C1)O2 (stereo not shown) [Example 605] | 56 |
| Cc1ccsc1Sc1nc2c(N)ncnc2n1CCC1CCN(C=O)CC1 [Example 546, 4-(2-{6-Amino-8-[(3-methyl-2-thienyl)thio]-9 H-purin-9-yl}ethyl)piperidine-1-carbaldehyde] | > 5000 |
| Nc1ncnc2c1nc(Sc1cc3c(cc1Br)OCO3)n2CCC1CCN(C(=O)C2(C(F)(F)F)CC2)CC1 [Example 526, 8-[(6-Bromo-1,3-benzodioxol-5-yl)thio]-9-[2-(1-{[1-(trifluoromethyl)cyclopropyl]carbonyl}piperidin-4-yl)ethyl]-9 H-purin-6-amine] | 300 |
| Nc1ncnc2c1nc(Sc1cc3c(cc1Br)OCO3)n2CCC1CCCCC1 [Example 173, 8-(6-Bromo-benzo[1,3]dioxol-5-ylsulfanyl)-9-(2-cyclohexyl-ethyl)-9H-purin-6-ylamine] | > 25000 |
| Nc1ncnc2c1nc(Sc1cc3c(cc1Br)OCO3)n2CCC1CCCN(CC(F)(F)F)C1 (stereo not shown) [Example 577, 8-[(6-Bromo-1,3-benzodioxol-5-yl)thio]-9-{2-[1-(2,2,2-trifluoroethyl)piperidin-3-yl]ethyl}-9 H-purin-6-amine] | 140 |
| CC(C)(C)OC(=O)N[C@H]1CC[C@@H](CCn2c(Sc3cc4c(cc3Br)OCO4)nc3c(N)ncnc32)CC1 [Example 398, tert-Butyl [cis-4-(2-{6-amino-8-[(6-bromo-1,3-benzodioxol-5-yl)thio]-9H-purin-9-yl}ethyl)cyclohexyl]carbamate] | 140 |
| N#Cc1cc2c(cc1Sc1nc3c(N)ncnc3n1CCc1ccccc1Cl)OCO2 [Example 326, 6-({6-Amino-9-[2-(2-chlorophenyl)ethyl]-9H-purin-8-yl}thio)-1,3-benzodioxole-5-carbonitrile] | 35 |
| Nc1ncnc2c1nc(Sc1cc3c(cc1Br)OCO3)n2CCC1CCN(C(=O)[C@H]2C[C@@H]2F)CC1 [Example 522, 8-[(6-Bromo-1,3-benzodioxol-5-yl)thio]-9-[2-(1-{[(2S)-2-fluorocyclopropyl]carbonyl}piperidin-4-yl)ethyl]-9 H-purin-6-amine] | 53 |
| C[C@@H](NC(=O)OC(C)(C)C)C(=O)N1CCC(CCn2c(Sc3cc4c(cc3Br)OCO4)nc3c(N)ncnc32)CC1 [Example 695, tert-Butyl{(1R)-2-[4-(2-{6-amino-8-[(6-bromo-1,3-benzodioxol-5-yl)thio]-9H-purin-9-yl}ethyl)piperidin-l-yl]-1-methyl-2-oxoethyl}carbamate] | 410 |
| Nc1ncnc2c1nc(Sc1cc3c(cc1I)OCO3)n2CCc1ccccc1 [Example 33, 8-(-6-Iodo-benzo[1,3]dioxol-5-ylsulfanyl)-9-phenethyl-9H-purin-6-ylamine] | 17 |
| COc1ccc(Sc2nc3c(N)ncnc3n2CCC2CCN(C(C)=O)CC2)cc1F [Example 567, 9-[2-(1-Acetylpiperidin-4-yl)ethyl]-8-[(3-fluoro-4-methoxyphenyl)thio]-9 H-purin-6-amine] | > 5000 |
| CC(C)(C)OC(=O)N1CCOC(CCn2c(Sc3cc4c(cc3Br)OCO4)nc3c(N)ncnc32)C1 (stereo not shown) [Example 367, tert-Butyl 2-(2-{6-amino-8-[(6-bromo-1,3-benzodioxol-5-yl)thio]-9H-purin-9-yl}ethyl)morpholine-4-carboxylate] | > 25000 |

More lines, now with the values ahead:

| IC50 [nM] | SMILES |
| --- | --- |
| > 25000 | COc1ccc(F)cc1Sc1nc2c(N)ncnc2n1CCc1ccccc1 [Example 312, 8-[(5-Fluoro-2-methoxyphenyl)thio]-9-(2-phenylethyl)-9H-purin-6-amine] |
| > 3000 | COc1ccc(OC)c(Sc2nc3c(N)ncnc3n2CCc2cccc(Cl)c2Cl)c1 [Example 73, 9-[2-(2,3-Dichloro-phenyl)-ethyl]-8-(2,5-dimethoxy-phenylsulfanyl)-9H-purin-6-ylamine] |
| > 25000 | COc1ccc(I)c(Sc2nc3c(N)ncnc3n2CCc2ccc(I)cc2)c1 [Example 310, 8-[(2-Iodo-5-methoxyphenyl)thio]-9-[2-(4-iodophenyl)ethyl]-9H-purin-6-amine] |
| 1100 | COc1ccc(OC)c(Sc2nc3c(N)ncnc3n2CCc2ccccc2C(F)(F)F)c1 [Example 183, 8-(2,5-Dimethoxy-phenylsulfanyl)-9-[2-(2-trifluoromethyl-phenyl)-ethyl]-9H-purin-6-ylamine] |
| > 8000 | COc1ccc(OC)c(Sc2nc3c(N)ncnc3n2CCc2cc(C(F)(F)F)cc(C(F)(F)F)c2)c1 [Example 219, 9-[2-(3,5-Bistrifluoromethyl-phenyl)-ethyl]-8-(2,5-dimethoxy-phenylsulfanyl)-9H-purin-6-ylamine] |
| > 8000 | Nc1ncnc2c1nc(Sc1cc(OC(F)(F)F)ccc1OC1CCCC1)n2CCc1ccccc1 [Example 328, 8-{[2-(Cyclopentyloxy)-5-(trifluoromethoxy)phenyl]thio}-9-(2-phenylethyl)-9H-purin-6-amine] |
| 1500 | COc1ccc(OC)c(Sc2nc3c(N)ncnc3n2CCC2CCN(C(C)=O)CC2)c1 [Example 557, 9-[2-(1-Acetylpiperidin-4-yl)ethyl]-8-[(2,5-dimethoxyphenyl)thio]-9 H-purin-6-amine] |
| 5500 | COc1ccc(OC)c(Sc2nc3c(N)ncnc3n2CCN2CCN(C3CCCC3)CC2)c1 [Example 494, 9-[2-(4-Cyclopentylpiperazin-1-yl)ethyl]-8-[(2,5-dimethoxyphenyl)thio]-9 H-purin-6-amine] |
| > 10000 | COc1ccc(OC)c(Sc2nc3c(N)ncnc3n2CC2(c3ccc(Cl)cc3)CCC2)c1 [Example 61, 9-[1-(4-Chloro-phenyl)-cyclobutylmethyl]-8-(2,5-dimethoxy-phenylsulfanyl)-9H-purin-6-ylamine] |
